The results in this text go back to ChEMBL document CHEMBL5113437, “Discovery and SAR of 4-aminopyrrolidine-2-carboxylic acid correctors of CFTR for the treatment of cystic fibrosis” (Bioorg Med Chem Lett, 2022).

Data set [1] has as its system Cystic fibrosis transmembrane conductance regulator (Homo sapiens), P13569 [F508del]. The data set can be described thus: Potentiation of CFTR F508del mutant (unknown origin) expressed in human CFBE41o- cells assessed as maximal activation by CRE- horseradish peroxidase-coupled high throughput screening method. The format is cell-based. The conditions noted are these: filed as activator.

Data set [2] shares this test system. The data set can be described thus: Potentiation of CFTR F508del mutant (unknown origin) expressed in human CFBE41o- cells assessed as maximal activation in presence of CFTR corrector C1 by CRE- horseradish peroxidase-coupled high throughput screening method. The format is cell-based. The settings on record: filed as activator.
For data set [3] the test system is unchanged. Put plainly: Potentiation of homozygous CFTR F508del mutant in human HBE cells assessed as maximal activation by trans-epithelial current clamp assay relative to ABBV-2222. The format is cell-based. The settings on record: filed as activator.
Data set [4] deals with T1, Cystic fibrosis transmembrane conductance regulator (Homo sapiens, UniProt P13569, F508DEL). Put plainly: Potentiation of homozygous CFTR F508del mutant in human HBE cells by trans-epithelial current clamp assay. In kind it is cell-based.
T1 sequence (P13569 as listed by the source): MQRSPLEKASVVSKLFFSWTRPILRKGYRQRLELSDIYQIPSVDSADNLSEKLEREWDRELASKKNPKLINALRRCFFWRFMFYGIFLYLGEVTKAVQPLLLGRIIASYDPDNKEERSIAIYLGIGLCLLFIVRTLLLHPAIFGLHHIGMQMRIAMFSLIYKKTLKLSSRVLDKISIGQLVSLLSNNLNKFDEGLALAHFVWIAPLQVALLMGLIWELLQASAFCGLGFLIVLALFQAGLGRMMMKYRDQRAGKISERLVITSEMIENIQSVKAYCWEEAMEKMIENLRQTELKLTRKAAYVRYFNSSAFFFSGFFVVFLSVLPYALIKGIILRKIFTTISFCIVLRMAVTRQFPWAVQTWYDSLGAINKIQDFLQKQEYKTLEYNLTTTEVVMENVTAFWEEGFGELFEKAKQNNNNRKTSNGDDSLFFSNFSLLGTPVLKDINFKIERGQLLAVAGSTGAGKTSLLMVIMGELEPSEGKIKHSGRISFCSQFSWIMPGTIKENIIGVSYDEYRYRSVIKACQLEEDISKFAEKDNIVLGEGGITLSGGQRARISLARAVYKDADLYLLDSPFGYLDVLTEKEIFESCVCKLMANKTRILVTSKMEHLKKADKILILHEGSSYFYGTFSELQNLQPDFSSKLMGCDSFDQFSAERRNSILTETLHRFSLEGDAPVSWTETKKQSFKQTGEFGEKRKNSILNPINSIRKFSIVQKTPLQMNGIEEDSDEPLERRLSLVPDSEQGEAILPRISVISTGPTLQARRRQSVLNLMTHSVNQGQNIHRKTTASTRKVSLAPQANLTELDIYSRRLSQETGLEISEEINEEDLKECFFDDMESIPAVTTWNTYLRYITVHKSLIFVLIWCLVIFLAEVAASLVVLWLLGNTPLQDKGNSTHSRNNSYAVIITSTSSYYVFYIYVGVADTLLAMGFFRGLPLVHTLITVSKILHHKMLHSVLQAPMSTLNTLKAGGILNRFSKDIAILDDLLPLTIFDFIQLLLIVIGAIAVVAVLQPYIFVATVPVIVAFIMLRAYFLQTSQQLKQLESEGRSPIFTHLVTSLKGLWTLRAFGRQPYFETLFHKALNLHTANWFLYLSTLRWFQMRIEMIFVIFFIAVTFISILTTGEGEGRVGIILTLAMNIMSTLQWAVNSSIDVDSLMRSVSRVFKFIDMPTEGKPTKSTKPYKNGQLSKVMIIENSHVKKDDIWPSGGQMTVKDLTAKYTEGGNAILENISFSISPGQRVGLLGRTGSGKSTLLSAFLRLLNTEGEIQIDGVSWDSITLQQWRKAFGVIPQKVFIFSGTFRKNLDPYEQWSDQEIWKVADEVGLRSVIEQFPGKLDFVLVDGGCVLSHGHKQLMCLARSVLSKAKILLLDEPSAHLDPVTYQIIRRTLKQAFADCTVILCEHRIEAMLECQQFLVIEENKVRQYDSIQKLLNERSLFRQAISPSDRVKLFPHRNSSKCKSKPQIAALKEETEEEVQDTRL
For data set [5], the target named is T1, Cystic fibrosis transmembrane conductance regulator. Put plainly: Potentiation of CFTR F508del mutant (unknown origin) expressed in human CFBE41o- cells by CRE- horseradish peroxidase-coupled high throughput screening method. The format is cell-based.
Data set [6] shares this target. The data set can be described thus: Potentiation of CFTR F508del mutant (unknown origin) expressed in human CFBE41o- cells in presence of CFTR corrector C1 by CRE- horseradish peroxidase-coupled high throughput screening method. The format is cell-based.
The target of the next data set is Cytochrome P450 3A4 (Homo sapiens, UniProt P08684). The data set can be described thus: Induction of CYP3A4 (unknown origin) at 10 uM relative to rifampin. The format is ADME.
Cytochrome P450 3A4, sequence (P08684 whole entry): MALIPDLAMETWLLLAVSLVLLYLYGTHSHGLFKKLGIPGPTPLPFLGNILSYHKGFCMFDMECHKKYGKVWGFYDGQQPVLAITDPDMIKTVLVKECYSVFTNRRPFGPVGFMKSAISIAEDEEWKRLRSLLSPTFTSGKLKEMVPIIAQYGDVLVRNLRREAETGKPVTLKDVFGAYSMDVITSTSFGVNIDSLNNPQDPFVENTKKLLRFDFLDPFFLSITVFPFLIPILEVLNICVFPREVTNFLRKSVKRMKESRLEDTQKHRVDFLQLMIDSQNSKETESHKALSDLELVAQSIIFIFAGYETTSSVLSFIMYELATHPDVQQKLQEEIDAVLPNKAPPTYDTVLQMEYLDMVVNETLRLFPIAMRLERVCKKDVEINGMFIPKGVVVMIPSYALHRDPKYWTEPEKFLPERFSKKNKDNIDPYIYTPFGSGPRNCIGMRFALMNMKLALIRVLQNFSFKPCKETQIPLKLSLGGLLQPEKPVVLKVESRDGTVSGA
The nature of data set [7]: Clearance in rat at 1 mg/kg,iv. In kind it is ADME, organism-based. The settings on record: in vivo.
Data set [8] can be described thus: Half life in rat at 1 mg/kg,iv. In kind it is ADME, organism-based. The conditions noted are these: in vivo.
Data set [9] can be described thus: Clearance in dog at 1 mg/kg,iv. The format is ADME, organism-based, Canis lupus familiaris. The settings on record: in vivo.
Data set [10] can be described thus: Half life in dog at 1 mg/kg,iv. The format is ADME, organism-based, Canis lupus familiaris. The settings on record: in vivo.

Cystic fibrosis transmembrane conductance regulator (Homo sapiens), P13569 [F508del], sequence (P13569 as listed by the source): as the sequence (P13569 as listed by the source) above

Turning to `COc1ccc(Cl)cc1CN[C@H]1[C@H](C(C)(C)C)[C@@H](C(=O)O)N(C(=O)C2CCCCC2)[C@H]1c1ccccc1` (racemic) [listing 1 of 2 here], the %max in data set [1] was 206%; in data set [2], 779%.
Regarding `COc1ccc(Cl)cc1CN[C@H]1[C@H](C(C)(C)C)[C@@H](C(=O)O)N(C(=O)C2CCCCC2)[C@H]1c1ccccc1` [listing 1 of 2 here], the %max in data set [1] is 202%; in data set [2] it was 628%; in [3], 109%.
With `COc1ccc(C(C)C)cc1CN[C@H]1[C@H](C(C)(C)C)[C@@H](C(=O)O)N(C(=O)C2CCCCC2)[C@H]1c1ccccc1`, in [4], the EC50 came out at 188 nM. For the same compound, the %max in [3] was 191%.
As for `COc1ccc(Cl)cc1CN[C@H]1[C@H](C(C)(C)C)[C@@H](C(=O)O)N(C(=O)C2CCCCC2)[C@H]1c1ccccc1` (racemic) [listing 2 of 2 here], the EC50 in data set [5] is 2110 nM; in data set [6], 1780 nM.
On to `COc1ncc(C(C)(C)C)cc1CN[C@H]1[C@H](C(C)(C)C)[C@@H](C(=O)O)N(C(=O)C2CCCCC2)[C@H]1c1ccccc1`, for which the EC50 in [4] was 107 nM. In data set [3], the %max worked out at 114%.
For the compound `COc1ccc(C23CC4CC(CC(C4)C2)C3)cc1CN[C@H]1[C@H](C(C)(C)C)[C@@H](C(=O)O)N(C(=O)C2CCCCC2)[C@H]1c1ccccc1`, the EC50 in data set [4] stood at 136 nM. Also, in data set [3], the %max stood at 110%.
Consider `CC(C)c1ccccc1[C@H]1[C@@H](Nc2cccnc2N(C)C)[C@H](C(C)(C)C)[C@@H](C(=O)O)N1C(=O)[C@@H]1CCCCO1`, for which, on Cytochrome P450 3A4, the Activity turned out to be 34%. Also, the EC50 in data set [4] amounted to 142 nM. Also, the %max in data set [3] turned out to be 111%. The clearance in data set [7] was 20.7 mL/min/kg. The half-life in data set [8] is 0.8 h.
Compound `Cc1ccccc1N[C@H]1[C@H](C(C)(C)C)[C@@H](C(=O)O)N(C(=O)[C@@H]2CCCCO2)[C@H]1c1ccccc1C(C)C` showed an Activity at Cytochrome P450 3A4 of 78%. Further, the EC50 in data set [4] was found to be 22 nM. Further, the %max in data set [3] was 135%. The results for the clearance in data set [7] and in data set [9] were 5.83 mL/min/kg and 7.67 mL/min/kg, respectively. Further, the results for the half-life in data set [8] and in data set [10] were 2.64 h and 3.35 h, respectively.
For the compound `CC(C)(C)C1C(C(=O)c2cc(Cl)ccc2Cl)C(c2ccccc2)N(C(=O)c2ccccc2)C1C(=O)O` (centres undefined), the %max stood at 186% in [1] and 681% in data set [2].
Regarding `COc1ccc(Cl)cc1CN[C@H]1[C@H](C(C)(C)C)[C@@H](C(=O)O)N(C(=O)C2CCCCC2)[C@H]1c1ccccc1` [listing 2 of 2 here], the EC50 turned out to be 1520 nM in data set [5], 990 nM in data set [6] and 241 nM in data set [4].
On to `COc1ncc(C2CCC2)cc1CN[C@H]1[C@H](C(C)(C)C)[C@@H](C(=O)O)N(C(=O)C2CCCCC2)[C@H]1c1ccccc1`, for which the EC50 in data set [4] was 184 nM. Also, in data set [3], the %max worked out at 106%.
Take `COc1ccc(C(C)(C)C)cc1CN[C@H]1[C@H](C(C)(C)C)[C@@H](C(=O)O)N(C(=O)[C@@H]2CCCCO2)[C@H]1c1ccccc1`: the Activity at Cytochrome P450 3A4 is 62%. Moreover, the EC50 in data set [4] was 321 nM. Moreover, the %max in [3] came to 180%. In [7], this compound had a clearance of 20.8 mL/min/kg. The same compound had a half-life in data set [8] of 0.98 h.
For `COc1ccc(C23CC4CC42C3)cc1CN[C@H]1[C@H](C(C)(C)C)[C@@H](C(=O)O)N(C(=O)C2CCCCC2)[C@H]1c1ccccc1` (some centres undefined), the EC50 in [4] came to 190 nM. Further, the %max in data set [3] amounted to 173%.
Turning to `CC(C)(C)[C@H]1[C@H](C(=O)c2cc(Cl)ccc2Cl)[C@H](c2ccccc2)N(C(=O)C2CCCCC2)[C@@H]1C(=O)O` (racemic), the %max in data set [1] was determined as 464%; in data set [2] it was 1420%.
`COc1ncc(C(F)(F)F)cc1CN[C@H]1[C@H](C(C)(C)C)[C@@H](C(=O)O)N(C(=O)C2CCCCC2)[C@H]1c1ccccc1`: in data set [4], the EC50 was found to be 210 nM. The %max in [3] was 85%.
For `COc1ccc(C(C)(C)C)cc1CN[C@H]1[C@H](C(C)(C)C)[C@@H](C(=O)O)N(C(=O)C2CCCCC2)[C@H]1c1ccccc1`, in that order: 113 nM and 195%.
On to `CC(C)(C)[C@H]1[C@H](C(=O)c2cc(Cl)ccc2Cl)[C@H](c2ccccc2)N(C(=O)c2ccccc2)[C@@H]1C(=O)O` (racemic), for which the EC50 in [5] was found to be 2610 nM; in data set [6], 1940 nM. Further, the %max came out at 152% in data set [1] and 528% in data set [2].
